Values joined by “and” are separate entries in the source; they are usually repeats but may differ in a detail not shown here. Equal entries are not always repeated.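 Tested at 5 concentrations; 48 h exposure; 96-well plates; endpoints linearly interpolated, else capped at highest concentration. The concentration for 50% growth inhibition is given as GI50. TGI: total growth inhibition.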
Assays:
Experiment in all cases: NCI anticancer screen, dose series, 48 h
CAKI-1 renal = test system: CAKI-1 renal
UACC-257 melanoma = test system: UACC-257 melanoma
NCI-H460 lung = test system: NCI-H460 lung
NCI-H522 lung = test system: NCI-H522 lung
NCI-H23 lung = test system: NCI-H23 lung
U251 CNS = test system: U251 CNS
K-562 leukemia = test system: K-562 leukemia
MCF7 breast = test system: MCF7 breast
HOP-92 NSCLC = test system: HOP-92 NSCLC
SN12C renal = test system: SN12C renal

## Cc1ccc(OCCOCCOCCOCCOc2ccc(C)n(O)c2=S)c(=S)n1O
CAKI-1 renal
  GI50: < 0.0146 µM
  TGI: > 100 µM
UACC-257 melanoma
  GI50: 0.0192 µM
  TGI: > 29.5 µM
NCI-H460 lung
  GI50: < 0.01 µM
  TGI: 7.28 µM
NCI-H522 lung
  GI50: 0.0294 µM
  TGI: > 79.7 µM
NCI-H23 lung
  GI50: 0.0166 µM
  TGI: > 100 µM
U251 CNS
  GI50: 0.0632 µM
  TGI: > 100 µM
K-562 leukemia
  GI50: < 0.01 µM
  TGI: > 100 µM
MCF7 breast
  GI50: < 0.01 µM
  TGI: 43.6 µM
HOP-92 NSCLC
  GI50: 4.78 µM
  TGI: > 90.8 µM
SN12C renal
  GI50: 0.0266 µM
  TGI: > 100 µM

## C=CC(=O)N1CN(C(=O)C=C)CN(C(=O)C=C)C1
CAKI-1 renal
  GI50: 1.63 µM
  TGI: 3.7 µM
UACC-257 melanoma
  GI50: 1.82 µM
  TGI: 4.59 µM
NCI-H460 lung
  GI50: 21.7 µM
  TGI: 50.4 µM
NCI-H522 lung
  GI50: 1.65 µM
  TGI: 3.51 µM
NCI-H23 lung
  GI50: 2.77 µM
  TGI: 9.15 µM
U251 CNS
  GI50: 4.34 µM
  TGI: 16.5 µM
K-562 leukemia
  GI50: 3.01 µM
  TGI: 9.83 µM
MCF7 breast
  GI50: 3.65 µM
  TGI: 15.5 µM
HOP-92 NSCLC
  GI50: 3.56 µM
  TGI: 13 µM
SN12C renal
  GI50: 20.7 µM
  TGI: 51.6 µM

## NCCNCC1CCNCC1
CAKI-1 renal
  TGI: > 100 µM
UACC-257 melanoma
  TGI: > 100 µM
NCI-H460 lung
  TGI: > 100 µM
NCI-H522 lung
  TGI: > 100 µM
NCI-H23 lung
  TGI: > 100 µM
U251 CNS
  TGI: > 100 µM
K-562 leukemia
  TGI: > 100 µM
MCF7 breast
  TGI: > 100 µM
HOP-92 NSCLC
  TGI: > 100 µM
SN12C renal
  TGI: > 100 µM

## O=C(/C(=C\c1c(-c2ccccc2)[nH]c2ccccc12)S(=O)(=O)c1ccccc1)c1ccccc1
CAKI-1 renal
  GI50: 3.13 µM
  TGI: > 100 µM
UACC-257 melanoma
  GI50: > 100 µM
  TGI: > 100 µM
NCI-H460 lung
  GI50: 5.9 µM
  TGI: > 100 µM
NCI-H522 lung
  GI50: 91.8 µM
  TGI: > 100 µM
NCI-H23 lung
  GI50: 9.57 µM
  TGI: > 100 µM
U251 CNS
  GI50: 8.64 µM
  TGI: > 100 µM
K-562 leukemia
  GI50: 6.53 µM
  TGI: > 100 µM
MCF7 breast
  GI50: 5.63 µM
  TGI: > 100 µM
HOP-92 NSCLC
  GI50: 4.95 µM
  TGI: > 100 µM
SN12C renal
  GI50: > 100 µM
  TGI: > 100 µM

## COc1ccc(-c2ccc3c(N4CCOC[C@@H]4C)nc(N4CCOC[C@@H]4C)nc3n2)cc1CO
CAKI-1 renal
  GI50: 0.00473 µM and 0.0302 µM
  TGI: 5.15 µM
UACC-257 melanoma
  GI50: 0.00454 µM and 0.023 µM
  TGI: 0.0285 µM
NCI-H460 lung
  GI50: 0.00417 µM and 0.0101 µM
  TGI: > 100 µM
NCI-H522 lung
  GI50: 0.00484 µM
NCI-H23 lung
  GI50: 0.00731 µM and 0.0394 µM
  TGI: > 100 µM
U251 CNS
  GI50: 0.00762 µM and 0.0341 µM
  TGI: > 54.1 µM
K-562 leukemia
  GI50: 0.012 µM and 0.0551 µM
  TGI: > 100 µM
MCF7 breast
  GI50: 0.00432 µM and < 0.0133 µM
  TGI: > 3.27 µM and 1.34 µM
HOP-92 NSCLC
  GI50: 0.00134 µM and 0.0105 µM
SN12C renal
  GI50: 0.0053 µM and 0.0208 µM
  TGI: > 100 µM

## CC(C)(C)[Si](C)(C)OC1[C@@H](CNC(=O)NC(=O)CCl)O[C@@H](n2cnc3c(N)ncnc32)[C@H]1O[Si](C)(C)C(C)(C)C (stereo partly drawn)
CAKI-1 renal
  GI50: 1.33 µM
  TGI: 3.89 µM
UACC-257 melanoma
  GI50: 2.65 µM
  TGI: 6.93 µM
NCI-H460 lung
  GI50: 1.24 µM
  TGI: 3.21 µM
NCI-H522 lung
  GI50: 0.718 µM
  TGI: 1.61 µM
NCI-H23 lung
  GI50: 0.955 µM
  TGI: 2.08 µM
U251 CNS
  GI50: 0.849 µM
  TGI: 1.58 µM
K-562 leukemia
  GI50: 1.23 µM
  TGI: 3.41 µM
MCF7 breast
  GI50: 0.724 µM
  TGI: 1.51 µM
HOP-92 NSCLC
  GI50: 0.885 µM
  TGI: 1.86 µM
SN12C renal
  GI50: 0.821 µM
  TGI: 1.88 µM

Source: PubChem BioAssay (NCI)
